From patent US20140058103A1, “Inhibitors of PI3K-Delta and Methods of Their Use and Manufacture” (Exelixis, Inc., priority 2010, published 2014)

Molecular target: PI3K delta (Homo sapiens, UniProt O00329)
Experiment: Luciferase-coupled chemiluminescence kinase assay (ATP consumption, KinaseGlo)
Assay type: biochemical
Procedure, shortened: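 Compound, kinase and ATP (≤ KM) reacted 2 h at ambient temperature, then remaining ATP quantified with luciferase-luciferin (KinaseGlo) luminescence as percent consumed.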

PI3K delta, sequence (O00329 whole entry): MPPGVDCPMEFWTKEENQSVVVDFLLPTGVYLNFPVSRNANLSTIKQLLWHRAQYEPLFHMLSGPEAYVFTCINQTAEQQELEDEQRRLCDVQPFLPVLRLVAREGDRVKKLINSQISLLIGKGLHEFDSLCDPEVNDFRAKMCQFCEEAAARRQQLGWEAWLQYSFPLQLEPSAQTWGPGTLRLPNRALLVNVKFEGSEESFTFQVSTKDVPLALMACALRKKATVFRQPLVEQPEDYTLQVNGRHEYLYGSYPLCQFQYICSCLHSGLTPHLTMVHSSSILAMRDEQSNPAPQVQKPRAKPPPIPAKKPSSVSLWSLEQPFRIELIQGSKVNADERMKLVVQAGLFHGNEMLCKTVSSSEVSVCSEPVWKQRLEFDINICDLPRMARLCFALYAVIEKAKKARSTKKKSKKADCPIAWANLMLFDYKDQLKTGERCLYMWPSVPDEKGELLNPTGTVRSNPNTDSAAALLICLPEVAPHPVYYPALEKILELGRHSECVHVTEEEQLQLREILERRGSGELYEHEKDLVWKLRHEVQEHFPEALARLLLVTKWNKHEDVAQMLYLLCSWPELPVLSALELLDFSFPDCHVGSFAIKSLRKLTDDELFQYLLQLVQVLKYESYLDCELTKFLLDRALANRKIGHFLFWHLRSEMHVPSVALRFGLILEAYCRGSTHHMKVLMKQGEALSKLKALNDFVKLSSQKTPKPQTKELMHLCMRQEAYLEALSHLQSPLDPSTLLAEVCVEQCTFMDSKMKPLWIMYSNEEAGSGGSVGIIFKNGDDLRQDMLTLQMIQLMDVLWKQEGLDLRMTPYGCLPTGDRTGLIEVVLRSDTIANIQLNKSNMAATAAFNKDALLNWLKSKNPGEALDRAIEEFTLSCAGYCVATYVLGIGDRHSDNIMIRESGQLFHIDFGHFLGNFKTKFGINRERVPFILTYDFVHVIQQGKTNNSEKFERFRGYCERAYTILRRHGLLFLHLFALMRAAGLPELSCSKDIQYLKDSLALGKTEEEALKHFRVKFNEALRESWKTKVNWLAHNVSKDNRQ
PI3K delta, sequence (P27986 whole entry partner): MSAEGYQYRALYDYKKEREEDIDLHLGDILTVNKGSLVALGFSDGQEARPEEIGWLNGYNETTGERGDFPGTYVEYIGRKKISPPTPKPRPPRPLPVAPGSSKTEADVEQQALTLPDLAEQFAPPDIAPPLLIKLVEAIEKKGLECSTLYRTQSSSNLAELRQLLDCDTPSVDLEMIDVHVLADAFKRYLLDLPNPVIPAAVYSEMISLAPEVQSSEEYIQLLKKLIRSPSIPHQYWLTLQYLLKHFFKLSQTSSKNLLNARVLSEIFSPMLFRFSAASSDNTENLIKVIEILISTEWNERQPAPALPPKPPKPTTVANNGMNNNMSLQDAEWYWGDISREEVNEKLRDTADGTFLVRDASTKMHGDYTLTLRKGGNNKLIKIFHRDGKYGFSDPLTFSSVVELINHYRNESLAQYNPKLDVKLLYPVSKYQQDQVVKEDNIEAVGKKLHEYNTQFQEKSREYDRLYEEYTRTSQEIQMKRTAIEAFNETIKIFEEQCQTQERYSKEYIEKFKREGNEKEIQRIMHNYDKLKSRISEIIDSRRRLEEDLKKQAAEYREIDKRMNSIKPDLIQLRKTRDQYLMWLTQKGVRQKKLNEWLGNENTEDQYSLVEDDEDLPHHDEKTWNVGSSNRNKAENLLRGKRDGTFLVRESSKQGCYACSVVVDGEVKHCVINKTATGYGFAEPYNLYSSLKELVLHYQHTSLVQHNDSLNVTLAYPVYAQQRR

Row | SMILES | IC50 [µM]
1 | CCCCCCNC(=O)c1nc2c(N3CCC4(CC3)C(=O)Nc3ccccc34)ncnc2n1C [Compound 37, N-hexyl-9-methyl-6-(2-oxo-1,2-dihydro-1′H-spiro[indole-3,4′-piperidin]-1′-yl)-9H-purine-8-carboxamide] | 0.5 to 1.5
2 | Cn1cc(-c2nc3c(N4CCN(S(=O)(=O)c5ccc(Cl)c(Cl)c5)CC4)ncnc3n2C)cn1 [Compound 380, 6-{4-[(3,4-dichlorophenyl)sulfonyl]piperazin-1-yl}-9-methyl-8-(1-methyl-1H-pyrazol-4-yl)-9H-purine] | 0.05 to 0.25
3 | Cn1c(-c2ccco2)nc2c(N3CCC(n4c(=O)[nH]c5ccccc54)CC3)ncnc21 [Compound 116, 1-[1-(8-furan-2-yl-9-methyl-9H-purin-6-yl)piperidin-4-yl]-1,3-dihydro-2H-benzimidazol-2-one] | 0.25 to 0.5
4 | Cn1c(C(=O)N2CCCC2)nc2c(N3CCC(n4c(=O)[nH]c5ccccc54)CC3)ncnc21 [Compound 68, 1-{1-[9-methyl-8-(pyrrolidin-1-ylcarbonyl)-9H-purin-6-yl]piperidin-4-yl}-1,3-dihydro-2H-benzimidazol-2-one] | 0.25 to 0.5
5 | Cn1c(C(=O)NCc2ccc(F)cc2F)nc2c(N3CCC(n4c(=O)[nH]c5ccccc54)CC3)ncnc21 [Compound 66, N-[(2,4-difluorophenyl)methyl]-9-methyl-6-[4-(2-oxo-2,3-dihydro-1H-benzimidazol-1-yl)piperidin-1-yl]-9H-purine-8-carboxamide] | 0.5 to 1.5
6 | Cn1c(C(=O)NC(C)(C)C)nc2c(N3CCC4(CC3)C(=O)Nc3ccccc34)ncnc21 [Compound 75, N-(1,1-dimethylethyl)-9-methyl-6-(2-oxo-1,2-dihydro-1′H-spiro[indole-3,4′-piperidin]-1′-yl)-9H-purine-8-carboxamide] | 0.05 to 0.25
7 | C/C=C/c1nc2c(N3CCC(n4c(=O)[nH]c5ccccc54)CC3)ncnc2n1C [Compound 144, 1-(1-{9-methyl-8-[(1E)-prop-1-en-1-yl]-9H-purin-6-yl}piperidin-4-yl)-1,3-dihydro-2H-benzimidazol-2-one] | 0.5 to 1.5
8 | Cc1cccc(C(=O)NCc2ccccc2N2CCN(c3ncnc4c3nc(-c3cnn(C)c3)n4C)CC2)c1 [Compound 363, 3-methyl-N-[(2-{4-[9-methyl-8-(1-methyl-1H-pyrazol-4-yl)-9H-purin-6-yl]piperazin-1-yl}phenyl)methyl]benzamide] | 0.25 to 0.5
9 | CCn1c(C(=O)N2CCC(F)(F)C2)nc2c(N3CCC4(CC3)C(=O)Nc3ccccc34)ncnc21 [Compound 218, 1′-{8-[(3,3-difluoropyrrolidin-1-yl)carbonyl]-9-ethyl-9H-purin-6-yl}spiro[indole-3,4′-piperidin]-2(1H)-one] | < 0.05
10 | CCn1c(C(=O)N2CC(F)(F)C2)nc2c(N3CCC(n4c(=O)[nH]c5ccccc54)CC3)ncnc21 [Compound 189, 1-(1-{8[(3,3-difluoroazetidin-1-yl)carbonyl]-9-ethyl-9H-purin-6-yl}piperidin-4-yl)-1,3-dihydro-2H-benzimidazol-2-one] | < 0.05
11 | CC(=O)c1nc2c(N3CCC(n4c(=O)[nH]c5ccccc54)CC3)ncnc2n1C [Compound 95, 1-[1-(8-Acetyl-9-methyl-9H-purin-6-yl)piperidin-4-yl]-1,3-dihydro-2H-benzimidazol-2-one] | 0.25 to 0.5
12 | O=C(NCC1CC1)c1nc2c(N3CCC(n4c(=O)[nH]c5ccccc54)CC3)ncnc2n1C1CC1 [Compound 171, 9-Cyclopropyl-N-(cyclopropylmethyl)-6-[4-(2-oxo-2,3-dihydro-1H-benzimidazol-1-yl)piperidin-1-yl]-9H-purine-8-carboxamide] | 0.05 to 0.25
13 | Cc1ccc(S(=O)(=O)N2CCN(c3ncnc4c3nc(-c3cnn(C)c3)n4C)CC2)cc1 [Compound 370, 9-methyl-6-{4-[(4-methylphenyl)sulfonyl]-piperazin-1-yl)-8-(1-methyl-1H-pyrazol-4-yl)-9H-purine] | 0.5 to 1.5
14 | Cn1c(C(=O)OCC2CC2)nc2c(N3CCC(n4c(=O)[nH]c5ccccc54)CC3)ncnc21 [Compound 79, Cyclopropylmethyl 9-methyl-6-[4-(2-oxo-2,3-dihydro-1H-benzimidazol-1-yl)piperidin-1-yl]-9H-purine-8-carboxylate] | 0.05 to 0.25
15 | CCn1c(C(=O)NC2CCC2)nc2c(N3CCC4(CC3)C(=O)Nc3ccccc34)ncnc21 [Compound 221, N-cyclobutyl-9-ethyl-6-(2-oxo-1,2-dihydro-1′H-spiro[indole-3,4′-piperidin]-1′-yl)-9H-purine-8-carboxamide] | < 0.05
16 | CCCc1nnc(-c2nc3c(N4CCC5(CC4)C(=O)Nc4ccccc45)ncnc3n2CC)o1 [Compound 227, 1′-[9-ethyl-8-(5-propyl-1,3,4-oxadiazol-2-yl)-9H-purin-6-yl]spiro[indole-3,4′-piperidin]-2(1H)-one] | < 0.05
17 | CCn1c(-c2cnn(C)c2)nc2c(N3CCC(n4c(=O)[nH]c5ccccc54)CC3)ncnc21 [Compound 243, 1-{1-[9-ethyl-8-(1-methyl-1H-pyrazol-4-yl)-9H-purin-6-yl]piperidin-4-yl}-1,3-dihydro-2H-benzimidazol-2-one] | < 0.05
18 | Cn1c(C(=O)N2CC[C@@H](F)C2)nc2c(N3CCC4(CC3)C(=O)Nc3ccccc34)ncnc21 [Compound 110, 1′-(8-{[(3R)-3-fluoropyrrolidin-1-yl]carbonyl}-9-methyl-9H-purin-6-yl)spiro[indole-3,4′-piperidin]-2(1H)-one] | 0.05 to 0.25

Continued, values first:

Row | IC50 [µM] | SMILES
19 | < 0.05 | CC(C)CNC(=O)c1nc2c(N3CCC4(CC3)C(=O)Nc3ccccc34)ncnc2n1C [Compound 34, 9-methyl-N-(2-methylpropyl)-6-(2-oxo-1,2-dihydro-1′H-spiro[indole-3,4′-piperidin]-1′-yl)-9H-purine-8-carboxamide]
20 | < 0.05 | CCn1c(C(=O)NCC(C)(C)O)nc2c(N3CCC(n4c(=O)[nH]c5ccccc54)CC3)ncnc21 [Compound 197, 9-ethyl-N-(2-hydroxy-2-methylpropyl)-6-[4-(2-oxo-2,3-dihydro-1H-benzimidazol-1-yl)piperidin-1-yl]-9H-purine-8-carboxamide]
21 | < 0.05 | Cn1ncc(-c2nc3c(N4CCC(n5c(=O)[nH]c6ccccc65)CC4)ncnc3n2C)c1Cl [Compound 272, 1-{1-[8-(5-chloro-1-methyl-1H-pyrazol-4-yl)-9-methyl-9H-purin-6-yl]piperidin-4-yl}-1,3-dihydro-2H-benzimidazol-2-one]
22 | < 0.05 | CCn1c(C(=O)N2CC[C@@H](F)C2)nc2c(N3CCC(n4c(=O)[nH]c5ccccc54)CC3)ncnc21 [Compound 186, 1-[1-(9-ethyl-8-{[(3R)-3-fluoropyrrolidin-1-yl]carbonyl}-9H-purin-6-yl)piperidin-4-yl]-1,3-dihydro-2H-benzimidazol-2-one]
23 | 0.05 to 0.25 | Cn1c(-n2cnc(Br)c2)nc2c(N3CCC(n4c(=O)[nH]c5ccccc54)CC3)ncnc21 [Compound 153, 1-{1-[8-(4-bromo-1H-imidazol-1-yl)-9-methyl-9H-purin-6-yl]piperidin-4-yl}-1,3-dihydro-2H-benzimidazol-2-one]
24 | 0.05 to 0.25 | Cn1cc(-c2nc3c(N4CC[C@@H](n5c(=O)[nH]c6ccccc65)[C@H](CO)C4)ncnc3n2C)cn1 [Compound 338, 1-{(3R,4R)-3-(hydroxymethyl)-1-[9-methyl-8-(1-methyl-1H-pyrazol-4-yl)-9H-purin-6-yl]piperidin-4-yl}-1,3-dihydro-2H-benzimidazol-2-one]
25 | < 0.05 | Cn1c(-c2cncnc2)nc2c(N3CCC(n4c(=O)[nH]c5ccccc54)CC3)ncnc21 [Compound 271, 1-[1-(9-methyl-8-pyrimidin-5-yl-9H-purin-6-yl)piperidin-4-yl]-1,3-dihydro-2H-benzimidazol-2-one]
26 | 0.5 to 1.5 | COC(=O)c1nc2c(N3CCC4(CC3)C(=O)Nc3ccccc34)ncnc2n1C [Compound 76, Methyl 9-methyl-6-(2-oxo-1,2-dihydro-1′H-spiro[indole-3,4′-piperidin]-1′-yl)-9H-purine-8-carboxylate]
27 | < 0.05 | CCn1c(C(=O)NCC(C)C)nc2c(N3CCC4(CC3)C(=O)Nc3ccccc34)ncnc21 [Compound 164, 9-ethyl-N-(2-methylpropyl)-6-(2-oxo-1,2-dihydro-1′H-spiro[indole-3,4′-piperidin]-1′-yl)-9H-purine-8-carboxamide]
28 | < 0.05 | CCn1c(C(=O)NCC(F)(F)F)nc2c(N3CCC4(CC3)C(=O)Nc3ccccc34)ncnc21 [Compound 160, 9-ethyl-6-(2-oxo-1,2-dihydro-1′H-spiro[indole-3,4′-piperidin]-1′-yl)-N-(2,2,2-trifluoroethyl)-9H-purine-8-carboxamide]
29 | 0.05 to 0.25 | Cn1c(C(=O)NCC2CC2)nc2c(N3CCC(n4c(=O)[nH]c5cc(F)ccc54)CC3)ncnc21 [Compound 205, N-(cyclopropylmethyl)-6-[4-(5-fluoro-2-oxo-2,3-dihydro-1H-benzimidazol-1-yl)piperidin-1-yl]-9-methyl-9H-purine-8-carboxamide]
30 | 0.05 to 0.25 | Cn1c(C(=O)NCC2CC2)nc2c(N3CCC(n4c(=O)[nH]c5ncccc54)CC3)ncnc21 [Compound 240, N-(cyclopropylmethyl)-9-methyl-6-[4-(2-oxo-2,3-dihydro-1H-imidazo[4,5-b]pyridin-1-yl)piperidin-1-yl]-9H-purine-8-carboxamide]
31 | < 0.05 | Cn1c(-c2ccc(C(F)(F)F)nc2)nc2c(N3CCC(n4c(=O)[nH]c5ccccc54)CC3)ncnc21 [Compound 279, 1-(1-{9-methyl-8-[6-(trifluoromethyl)pyridin-3-yl]-9H-purin-6-yl}piperidin-4-yl)-1,3-dihydro-2H-benzimidazol-2-one]
32 | 0.5 to 1.5 | Cn1c(C(=O)NCC2CC2)nc2c(N3CCC(n4c(=O)[nH]c5ccccc54)C3)ncnc21 (stereo not drawn) [Compound 172, N-(cyclopropylmethyl)-9-methyl-6-[3-(2-oxo-2,3-dihydro-1H-benzimidazol-1-yl)pyrrolidin-1-yl]-9H-purine-8-carboxamide]
33 | 0.5 to 1.5 | Cc1c(-c2nc3c(N4CCC5(CC4)C(=O)Nc4ccccc45)ncnc3n2C)cnn1C [Compound 393, 1′-(8-(1,5-dimethyl-1H-pyrazol-4-yl)-9-methyl-9H-purin-6-yl)spiro[indoline-3,4′-piperidin]-2-one]
